We go through 18 compounds from patent US9321742B2, “N1-cyclic amine-N5-substituted biguanide derivatives, methods of preparing the same and pharmaceutical composition comprising the same” (IMMUNOMET THERAPEUTICS INC., priority 2011, dated 2016).

Where a name gives a salt, the structure may show the parent alone.

What is called inhibition is the share of the control response that was lost under treatment. The GI50 is the concentration that inhibits growth by half. By melting point is commonly meant the temperature of the solid-liquid transition.

The subject of one data set is AMPKα. As to the kind of experiment: Measurement of AMPK-activation effect (AMPKα Thr172 phosphorylation immunoassay in MCF7 cells). To be noted: 24 hours; for AMPK activation effect 50 uM (%) / AMPK activation effect 10 uM (%): relative to untreated cells. It counts as cell-based, human. The method, then: MCF7 cells derived from human breast cancer cells (commercially available from the Korean Cell Line Bank) were used, and the AMPK (5′-AMP-activated protein kinase alpha)-activation effect of the biguanide derivative was confirmed using an AMPKα immunoassay kit (Invitrogen, Catalog No. KH00651).
MCF7 cells were cultured in a DMEM medium supplemented with 10% fetal bovine serum. Thereafter, the cultured MCF7 cells were put into a 6-well plate with approximately 5×10^5 cells per well and cultured in an incubator supplied with 5% CO2. Culture media were treated with the derivatives synthesized in the examples at contents of 5, 10 and 50 μM, and then cultured for 24 hours. Metformin hydrochloride was used as the control, and the culture media were treated with 0.05, 0.5, 1, 2, 5 and 10 mM metformin hydrochloride, and then tested in the same manner as described in the derivatives synthesized in the examples. Subsequently, the cells were lysed according to a method presented in the operation manual of the AMPKα immunoassay kit, and 20 μg of a cell lysate was then yielded through protein assay. Thereafter, the AMPK activation effect was obtained by determining the degree of phosphorylation of 172nd threonine residue (Thr172) of the AMPKα from the cell lysate according to the method presented in the operation manual of the AMPKα immunoassay kit. […] A curve graph showing AMPK activation according to the concentration of the treated compounds was plotted based on the obtained AMPKα activation results, the concentration (activation concentration 150, AC150) value of the compound whose AMPK activation reached 150% was calculated using a GraphPad Prism 5.0 program, and the degrees of AMPK activation were obtained when concentrations of the treated biguanide derivatives were 10 μM and 50 μM and the metformin hydrochloride was 50 μM.

In a further data set the test system is HCT116 cells. Briefly: Measurement of effect of inhibiting cancer cell proliferation (MTT). The format is cell-based. To be noted: Homo sapiens; for inhibition at 100 µM: HCT-116, 100 uM, read-out: Cell Growth Inhibition (%) at 100 uM; for GI50: HCT-116, 48 hours. From the text: HCT116 cells derived from human colorectal cancer (commercially available from the Korean Cell Line Bank) were used, and the effect of inhibiting cancer cell proliferation of the biguanide derivative was confirmed by measuring the concentration value (cell growth inhibition concentration, GIC50) at which cell growth was inhibited by 50% using a 3-(4,5-dimethylthiazol-2-yl)-2,5-[…] bromide (MTT) reagent.
First, HCT116 cells were put on a 96-well plate and cultured in a DMEM medium containing 10% fetal bovine serum for 16 hours so that the cellcount in each well was approximately 5,000. Subsequently, to obtain the GIC50 value of each compound, culture media were treated with 100 μM, 25 μM, 6.25 μM, 1.56 μM or 0.39 μM of the compound, and then cultured for 48 hours. At this time, some of the compounds were treated with 200 μM instead of 100 μM. Metformin hydrochloride was used as the control, and the culture media were treated with 25, 12.5, 2.5, 0.5, 0.1 mM metformin hydrochloride, and then tested in the same manner as described in the derivatives synthesized in the examples. In order to determine whether the cells survived after treatment with the compound, MTT was added to the culture media which were then cultured for another 3 hours. Formed formazane crystals were dissolved using dimethyl sulfoxide (DMSO), and the absorbance of the resulting solution was measured at 560 nm. After the 48-hours culture, the ratio of the cell count cultured on a well plate not treated with the compound to the living cell count on a well plate treated with the compounds synthesized in the examples was indicated as cell viability (%) according to each treated concentration. A cell viability curve graph was plotted and the concentration (GIC50) value of the compound at which the growth was inhibited by 50% was calculated to confirm the effect of inhibition of cancer cell proliferation. Also, the cell growth viability (%) when the concentration of the treated biguanide derivative and the metformin hydrochloride as the control were 100 uM was shown.

As to `Cl.N=C(NCc1cccc2ccccc12)NC(=N)N1CCCCC1` [Example 25, N1-piperidine-N5-(naphthalene-1-yl)methyl biguanide hydrochloride], in the data set on AMPKα, the “AMPK activation effect 50 uM (%)” value is given as 428% and the “AC150 (concentration at which AMPK activation reached 150%)” value came to 8.0 µM. In addition, the inhibition at 100 µM in the data set on HCT116 cells (48 hours) is 96.6%. For the same compound, it took 28 µM to inhibit growth with HCT116 cells by half (GI50).
In turn, `Cl.N=C(NCc1ccc(F)c(F)c1)NC(=N)N1CCCCC1` [Example 52, N1-piperidine-N5-(3,4-difluoro)benzyl biguanide hydrochloride] showed a melting point of 230 to 232 °C. In the data set with AMPKα, the “AMPK activation effect 10 uM (%)” value came out at 327%, the “AMPK activation effect 50 uM (%)” value is reported as 703% and the “AC150 (concentration at which AMPK activation reached 150%)” value worked out at 3.8 µM. In addition, the inhibition at 100 µM in the data set on HCT116 cells (48 hours) is 46.5%. In the data set with HCT116 cells, this compound displayed a GI50 of 76.4 µM.
In turn, `Cl.N=C(NCc1ccc(OC(F)(F)F)cc1)NC(=N)N1CCC1` [Example 40, N1-azetidine-N5-(4-trifluoromethoxy)benzyl biguanide hydrochloride] displayed a melting point of 182 to 184 °C. In the data set with AMPKα, the “AMPK activation effect 10 uM (%)” value is 673%, the “AMPK activation effect 50 uM (%)” value is listed as 1076% and the “AC150 (concentration at which AMPK activation reached 150%)” value came to 3.9 µM. Also, the inhibition at 100 µM in the data set on HCT116 cells (48 hours) worked out at 97.8%. In the data set with HCT116 cells, this compound gave a GI50 of 36.9 µM.
With `Cl.N=C(NCCc1ccccc1)NC(=N)N1CCCC1` [Example 57, N1-pyrrolidine-N5-(phenethyl)biguanide hydrochloride], the melting point was in the range of 213 to 215 °C. Also, in the data set on AMPKα, the “AMPK activation effect 50 uM (%)” value is 391% and the “AC150 (concentration at which AMPK activation reached 150%)” value came to 8.1 µM. Moreover, the inhibition at 200 µM in the data set with HCT116 cells (HCT-116, 200 uM, 48 hours, read-out: Cell Growth Inhibition (%) at 200 uM) was 23.2%. In the data set on HCT116 cells, the GI50 was over 200 µM.
`Cl.N=C(NCc1ccc(Cl)c(C(F)(F)F)c1)NC(=N)N1CCCCC1` [Example 45, N1-piperidine-N5-(4-chloro-3-trifluoromethyl)benzyl biguanide hydrochloride] returned a melting point of 259 to 261 °C. Moreover, in the data set with AMPKα, the “AMPK activation effect 10 uM (%)” value turned out to be 162%, the “AMPK activation effect 50 uM (%)” value is 232% and the “AC150 (concentration at which AMPK activation reached 150%)” value is 1.7 µM. Also, in the data set on HCT116 cells (48 hours), the inhibition at 100 µM is 96.9%. Moreover, the GI50 in the data set on HCT116 cells came out at 8.2 µM.
Consider `CN(C)C(=N)N=C(N)N` [Metformin hydrochloride, reference compound], for which, in the data set with AMPKα, the “AMPK activation effect 50 uM (%)” value was 130% and the “AC150 (concentration at which AMPK activation reached 150%)” value turned out to be 188.3 µM. The inhibition at 100 µM with HCT116 cells (48 hours) stood at 1.8%. The compound also displayed a GI50 with HCT116 cells of 2850 µM.
In turn, `Cl.N=C(NCc1ccc(Cl)c(Cl)c1)NC(=N)N1CCCC1` [Example 54, N1-pyrrolidine-N5-(3,4-dichloro)benzyl biguanide hydrochloride] had a melting point of 219 to 221 °C. In addition, in the data set on AMPKα, the “AMPK activation effect 10 uM (%)” value turned out to be 315% and the “AC150 (concentration at which AMPK activation reached 150%)” value was found to be 0.8 µM. Further, the inhibition at 100 µM with HCT116 cells (48 hours) came to 98%. For the same compound, the GI50 with HCT116 cells turned out to be 21.1 µM.
In turn, `Cl.N=C(NCc1ccc(C(F)(F)F)cc1)NC(=N)N1CCC1` [Example 37, N1-azetidine-N5-(4-trifluoromethyl)benzyl biguanide hydrochloride] had a melting point of 260 to 261 °C. Also, in the data set on AMPKα, the “AMPK activation effect 10 uM (%)” value amounted to 100%, the “AMPK activation effect 50 uM (%)” value was determined as 107% and the “AC150 (concentration at which AMPK activation reached 150%)” value was found to be 24.2 µM. Further, in the data set on HCT116 cells (48 hours), the inhibition at 100 µM worked out at 23.5%. The compound further yielded a GI50 in the data set on HCT116 cells of 39.3 µM.
`Cl.N=C(NCc1ccc(OC(F)(F)F)cc1)NC(=N)N1CCCC1` [Example 41, N1-pyrrolidine-N5-(4-trifluoromethoxy)benzyl biguanide hydrochloride] displayed a melting point of 242 to 243 °C. Also, in the data set on AMPKα, the “AMPK activation effect 10 uM (%)” value was 242%, the “AMPK activation effect 50 uM (%)” value is listed as 698% and the “AC150 (concentration at which AMPK activation reached 150%)” value was 0.9 µM. The inhibition at 100 µM in the data set on HCT116 cells (48 hours) was 97.4%. The GI50 with HCT116 cells was 25.6 µM.
With `Cl.N=C(NCc1cccc(C(F)(F)F)c1)NC(=N)N1CCOCC1` [Example 36, N1-morpholine-N5-(3-trifluoromethyl)benzyl biguanide hydrochloride], the melting point lay within 211 to 212 °C. For the same compound, in the data set on AMPKα, the “AMPK activation effect 10 uM (%)” value is given as 516%, the “AMPK activation effect 50 uM (%)” value is reported as 656% and the “AC150 (concentration at which AMPK activation reached 150%)” value was over 50 µM. In addition, the inhibition at 100 µM in the data set on HCT116 cells (48 hours) was found to be 97.2%. The same compound returned a GI50 with HCT116 cells of over 100 µM.
Turning to `Cl.N=C(NCc1ccc(OC(F)(F)F)c(F)c1)NC(=N)N1CCCCC1` [Example 49, N1-piperidine-N5-(3-fluoro-4-trifluoromethoxy)benzyl biguanide hydrochloride], the melting point is 266 to 268 °C. Moreover, in the data set on AMPKα, the “AMPK activation effect 10 uM (%)” value was 158%, the “AMPK activation effect 50 uM (%)” value stood at 147% and the “AC150 (concentration at which AMPK activation reached 150%)” value is 0.8 µM. The inhibition at 100 µM in the data set on HCT116 cells (48 hours) is 97%. The GI50 in the data set on HCT116 cells was 9.2 µM.
Take `Cl.N=C(NC(=N)N1CCCC1)NC1CCCCCC1` [Example 17, N1-pyrrolidine-N5-cycloheptyl biguanide hydrochloride]: the melting point is 265 to 266 °C. In addition, in the data set with AMPKα, the “AMPK activation effect 10 uM (%)” value came out at 149%, the “AMPK activation effect 50 uM (%)” value amounted to 612% and the “AC150 (concentration at which AMPK activation reached 150%)” value turned out to be 7.9 µM. Further, the inhibition at 100 µM with HCT116 cells (48 hours) turned out to be 60.8%. Also, in the data set with HCT116 cells, the GI50 stood at 41 µM.
As to `Cl.N=C(NCc1ccc(OC(F)(F)F)cc1)NC(=N)N1CCCCC1` [Example 42, N1-piperidine-N5-(4-trifluoromethoxy)benzyl biguanide hydrochloride], the melting point is 268 to 269 °C. In addition, in the data set on AMPKα, the “AMPK activation effect 10 uM (%)” value is reported as 472%, the “AMPK activation effect 50 uM (%)” value is 554% and the “AC150 (concentration at which AMPK activation reached 150%)” value worked out at 0.8 µM. For the same compound, the inhibition at 100 µM with HCT116 cells (48 hours) is 96.8%. This compound also yielded a 50% growth inhibitory concentration (GI50) in the data set with HCT116 cells of 16.2 µM.
As for `Cl.N=C(NCc1cccc(F)c1)NC(=N)N1CCCCC1` [Example 29, N1-piperidine-N5-(3-fluoro)bezyl biguanide hydrochloride], the melting point lay in the range of 171 to 172 °C. Moreover, in the data set with AMPKα, the “AMPK activation effect 50 uM (%)” value stood at 131% and the “AC150 (concentration at which AMPK activation reached 150%)” value was over 50 µM.
Turning to `CN1CCN(C(=N)NC(=N)NCc2ccc(OC(F)(F)F)cc2)CC1.Cl` [Example 43, N1-(4-methyl)piperazine-N5-(4-trifluoromethoxy)benzyl biguanide hydrochloride], in the data set on AMPKα, the “AMPK activation effect 10 uM (%)” value is 669%, the “AMPK activation effect 50 uM (%)” value is listed as 854% and the “AC150 (concentration at which AMPK activation reached 150%)” value was 6.4 µM. In the data set on HCT116 cells (48 hours), the inhibition at 100 µM is 97.7%. The same compound yielded a GI50 in the data set with HCT116 cells of over 100 µM.
`Cl.N=C(NCc1ccccc1)NC(=N)N1CCCCC1` came in with a melting point of 156 to 158 °C.
On the same count and under the same terms, the value for `Cl.N=C(NCc1cccnc1)NC(=N)N1CCCCC1` was 197 to 199 °C.
In the case of `Cl.N=C(NCc1ccc(C(F)(F)F)cc1)NC(=N)N1CCCCC1` [Example 39, N1-piperidine-N5-(4-trifluoromethyl)benzyl biguanide hydrochloride], in the data set on AMPKα, the “AMPK activation effect 10 uM (%)” value is on record as 476%, the “AMPK activation effect 50 uM (%)” value came out at 615% and the “AC150 (concentration at which AMPK activation reached 150%)” value came out at 0.9 µM. The inhibition at 100 µM in the data set with HCT116 cells (48 hours) turned out to be 78.9%. In addition, the GI50 in the data set with HCT116 cells is 16.2 µM.
